Measurements from US20060111341A1, “Use of galanthamine and the derivatives thereof in the production of medicaments” (priority 2003, published 2006).

Assays:
Butyrylcholinesterase = Butyrylcholinesterase (Homo sapiens, UniProt P06276); experiment: biochemical
Acetylcholinesterase = Acetylcholinesterase (Homo sapiens, UniProt P22303); experiment: biochemical
Acetylcholinesterase, sequence (P22303 32-614): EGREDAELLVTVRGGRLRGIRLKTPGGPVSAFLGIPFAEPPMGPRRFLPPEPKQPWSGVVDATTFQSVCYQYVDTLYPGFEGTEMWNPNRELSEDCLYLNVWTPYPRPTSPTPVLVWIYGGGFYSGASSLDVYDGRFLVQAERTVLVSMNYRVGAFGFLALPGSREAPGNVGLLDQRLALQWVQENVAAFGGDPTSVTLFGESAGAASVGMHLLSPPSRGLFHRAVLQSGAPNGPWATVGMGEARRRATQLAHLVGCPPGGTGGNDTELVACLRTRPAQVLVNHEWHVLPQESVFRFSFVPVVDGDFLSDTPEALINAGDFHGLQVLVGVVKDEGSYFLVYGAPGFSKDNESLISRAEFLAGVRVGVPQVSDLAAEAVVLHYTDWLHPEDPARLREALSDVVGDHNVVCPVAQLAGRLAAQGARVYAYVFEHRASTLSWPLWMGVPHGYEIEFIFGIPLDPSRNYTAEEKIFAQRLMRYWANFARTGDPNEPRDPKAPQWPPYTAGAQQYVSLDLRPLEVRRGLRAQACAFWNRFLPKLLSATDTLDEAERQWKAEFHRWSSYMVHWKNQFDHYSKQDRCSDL

Butyrylcholinesterase, sequence (P06276 29-602): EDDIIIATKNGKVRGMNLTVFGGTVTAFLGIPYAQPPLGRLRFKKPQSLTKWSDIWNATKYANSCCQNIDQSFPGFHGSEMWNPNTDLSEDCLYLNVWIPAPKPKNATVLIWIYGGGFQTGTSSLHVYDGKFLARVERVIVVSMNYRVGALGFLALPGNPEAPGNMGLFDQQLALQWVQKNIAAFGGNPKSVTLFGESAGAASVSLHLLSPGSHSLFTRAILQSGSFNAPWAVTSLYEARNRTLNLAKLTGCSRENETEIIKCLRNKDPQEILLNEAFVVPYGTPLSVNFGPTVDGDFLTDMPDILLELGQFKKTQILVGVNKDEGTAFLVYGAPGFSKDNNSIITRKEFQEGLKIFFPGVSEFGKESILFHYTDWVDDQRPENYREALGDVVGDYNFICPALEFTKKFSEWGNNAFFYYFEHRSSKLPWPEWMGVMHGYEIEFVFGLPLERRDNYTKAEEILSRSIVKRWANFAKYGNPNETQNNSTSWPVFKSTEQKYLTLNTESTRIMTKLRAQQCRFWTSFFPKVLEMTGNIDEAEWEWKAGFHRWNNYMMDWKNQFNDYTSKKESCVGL

Row | Compound | IC50 (Butyrylcholinesterase) [µM] | IC50 (Acetylcholinesterase) [µM]
1 | CNC(=S)N1CCC23C=C[C@H](O)CC2Oc2c(OC)cc(Br)c(c23)C1 (mixture of isomers) [Nr 71] | 20 | 31
2 | COc1cc(Br)c2c3c1OC1C[C@@H](O)C=CC31CCN(CCC#N)C2 (mixture of isomers) [Nr 72] | 43 | > 100
3 | CNC(=S)N1CCC23C=C[C@H](O)CC2Oc2c(OC)ccc(c23)C1 (mixture of isomers) [Nr 73] | 30 | 23
4 | COc1ccc2c3c1OC1C[C@@H](O)C=CC31CCN(C(=O)NC(C)C)C2 (mixture of isomers) [Nr 75] | > 100 | 4.2
5 | COc1ccc2c3c1OC1C[C@@H](O)C=CC31CCN(C(=O)Nc1ccccc1)C2 (mixture of isomers) [Nr 76] | > 100 | 70
6 | COc1ccc2c3c1OC1C[C@@H](O)C=CC31CCN(/C(=N/C#N)SC)C2 (mixture of isomers) [Nr 79] | 0.54 | 25
7 | COc1ccc2c3c1OC1C[C@@H](O)C=CC31CCN(C=C(C#N)C#N)C2 (mixture of isomers) [Nr 80] | > 100 | 28.5
8 | COc1ccc2c3c1OC1C[C@@H](O)C=CC31CCN(CCCO)C2 (mixture of isomers) [Nr 81] | 21 | 7.2
9 | COc1ccc2c3c1OC1C[C@@H](O)C=CC31CCN(C(=O)NC(C)(C)C)C2 (mixture of isomers) [Nr 82] | > 100 | 4.8
10 | COc1ccc2c3c1OC1C[C@@H](O)C=CC31CCN(c1ncccn1)C2 (mixture of isomers) [Nr 85] | 30 | 38
11 | COc1ccc2c3c1OC1C[C@@H](O)C=CC31CCN(C(=O)Nc1ccc3ccccc3c1)C2 (mixture of isomers) [Nr 88] | > 100 | 36
12 | COc1ccc2c3c1OC1C[C@@H](O)C=CC31CCN(c1nccc(Cl)n1)C2 (mixture of isomers) [Nr 89] | > 100 | 66
13 | COc1ccc2c3c1OC1C[C@@H](O)C=CC31CCN(CCCN)C2 (mixture of isomers) [Nr 90] | 11 | 3.4
14 | C=CCNC(=S)N1CCC23C=C[C@H](O)CC2Oc2c(OC)ccc(c23)C1 (mixture of isomers) [Nr 91] | > 100 | 21
15 | COc1ccc2c3c1OC1C[C@@H](O)C=CC31CCN(C(=O)Nc1ccc(Cl)cc1)C2 (mixture of isomers) [Nr 92] | > 100 | 24
16 | COc1ccc2c3c1OC1C[C@@H](O)C=CC31CCN(c1nc(OCCCN(C)C)nc(OCCCN(C)C)n1)C2 (mixture of isomers) [Nr 94] | 40 | 70
17 | CCN(CC)c1nc(N(CC)CC)nc(N2CCC34C=C[C@H](O)CC3Oc3c(OC)ccc(c34)C2)n1 (mixture of isomers) [Nr 95] | > 100 | 40
18 | COc1ccc2c3c1OC1C[C@@H](O)C=CC31CCN(c1ccnc(OCCCN(C)C)n1)C2 (mixture of isomers) [Nr 96] | 36 | 7.4
19 | CCN(CC)c1nccc(N2CCC34C=C[C@H](O)CC3Oc3c(OC)ccc(c34)C2)n1 (mixture of isomers) [Nr 97] | > 100 | 25
20 | COc1ccc2c3c1OC1C[C@@H](O)C=CC31CCN(CCC(=O)NC(C)(C)C)C2 (mixture of isomers) [Nr 101] | 26 | 45
21 | C=C(C)C[N+]1(C)CCC23C=C[C@@H](O)CC2Oc2c(OC)cc(C)c(c23)C1 (mixture of isomers) [Nr 102] | 95 | > 100
22 | C#CC[N+]1(C)CCC23C=C[C@@H](O)CC2Oc2c(OC)cc(C)c(c23)C1 (mixture of isomers) [Nr 103] | 45 | 59
23 | C=CC[N+]1(C)CCC23C=C[C@@H](O)CC2Oc2c(OC)cc(C)c(c23)C1 (mixture of isomers) [Nr 104] | 52 | > 100
24 | COc1cc(C)c2c3c1OC1C[C@H](O)C=CC31CC[N+](C)(Cc1ccc(C(F)(F)F)cc1)C2 (mixture of isomers) [Nr 105] | 5.4 | 60
25 | COc1cc(C)c2c3c1OC1C[C@H](O)C=CC31CC[N+](C)(Cc1ccccc1)C2 (mixture of isomers) [Nr 106] | 3 | > 100
26 | COc1cc(C)c2c3c1OC1C[C@@H](O)C=CC31CC[N+](C)(C)C2 (mixture of isomers) [Nr 107] | 14 | > 100
